According to patent publication US7727972B2, “Methods for determining absorption of cobalamin or analogues thereof” (DrugTech Corporation, priority 2004, dated 2010):

Tested on: Anti haptocorrin antibodies (ELISA)
Assay: Cross-reactivity of the haptocorrin ELISA towards other cobalamin binding proteins
Design: species or system rabbit
Conditions: 60 nmol/L in the assay mixture
Procedure: Antibodies. Anti haptocorrin was produced by DakoCytomation A/S, Denmark by immunising rabbits with 200 μg pure haptocorrin produced as previously described (12) and deglycosylated as described above. The gamma globulin fraction was pre-pared (13) from serum obtained after 7 immunisations.
ELISA. The principle of the ELISA assay used was an immobilised capture antibody (0.1 ug gamma globulin/well, rabbit nr F7773) catching the analyte and a biotinylated detection antibody (gamma globulin 3 ug/L, rabbit nr 7772) visualised by avidin/Horse Radish Peroxidase (HRP). Colour development by addition of 3,3′,5,5′-tetramethyl-benzidin was proportional to the concentration of analyte. The assay procedure was as previously described for transcobalamin (14, 15). In brief, calibrator, sample or control (100 μL, final dilution 1:30) was incubated for 1 hour at room temperature prior to washing and incubation for 30 min with the biotinylated detection antibody. The attached biotinylated antibody was detected employing avidin/HRP and colour development was determined by measuring the absorbance at 420 nm and correcting for the absorbance at 620 nm. The calibrator employed was deglycosylated pure human haptocorrin. All samples were run in true duplicates, where deglycosylation was performed on two independent samples.
Samples. […]

## intrinsic factor: cobalamin binding protein; pure IF dissolved in phosphate buffer 0.1 M containing albumin 0.1%
  cross-reactivity in haptocorrin ELISA: No cross-reactivity
